Measurements taken from BindingDB's records for doi:10.1021/jm00089a021 (Tanabe Seiyaku, 1992).

Biological target: Aldose reductase (Oryctolagus cuniculus)
Test: Tested in vitro for inhibitory activity against partially purified aldose reductase from male rabbit lens

| Compound | IC50 |
| --- | --- |
| NN1C(=O)Nc2ccccc2C12NC(=O)NC2=O (configuration not stated) | 4 µM |
| CN1C(=O)Nc2cc(Cl)c([N+](=O)[O-])cc2C12NC(=O)NC2=O (configuration not stated) | 0.12 µM |
| CN1C(=O)Nc2ccc([N+](=O)[O-])cc2C12NC(=O)NC2=O (configuration not stated) | 0.073 µM |
| COc1ccc2c(c1)NC(=O)N(C)C21NC(=O)NC1=O (configuration not stated) | 0.36 µM |
| Cc1cccc2c1C1(NC(=O)NC1=O)N(C)C(=O)N2 (configuration not stated) | 0.4 µM |
| CN1C(=O)Nc2c(cc(F)c(F)c2F)C12NC(=O)NC2=O (configuration not stated) | 0.14 µM |
| CN1C(=O)Nc2ccccc2C12NC(=S)NC2=O (configuration not stated) | > 10 µM |
| Cc1cc2c(cc1Cl)C1(NC(=O)NC1=O)N(C)C(=O)N2 (configuration not stated) | 0.03 µM |
| O=C1NC(=O)C2(N1)c1ccccc1NC(=O)N2O (configuration not stated) | > 10 µM |
| CN1C(=O)Nc2cc(N3CCOCC3)c([N+](=O)[O-])cc2C12NC(=O)NC2=O (configuration not stated) | 0.43 µM |
| O=C1NC(=O)C2(N1)c1ccccc1NC(=O)N2Cc1ccccc1 (configuration not stated) | > 10 µM |
| CN1C(=O)Nc2ccc(Cl)cc2[C@@]12NC(=O)NC2=O | 0.022 µM |
| CN1C(=O)Nc2cc(Cl)c(Cl)cc2C12NC(=O)NC2=O (configuration not stated) | 0.074 µM |
| CN1C(=O)Nc2ccc(N)cc2C12NC(=O)NC2=O (configuration not stated) | > 10 µM |
| CCCCN1C(=O)Nc2ccccc2C12NC(=O)NC2=O (configuration not stated) | > 10 µM |
| CN1C(=O)NC(=O)C12c1ccccc1NC(=O)N2C (configuration not stated) | > 10 µM |

| Compound | IC50 |
| --- | --- |
| CC(C)N1C(=O)Nc2ccccc2C12NC(=O)NC2=O (configuration not stated) | > 10 µM |
| CN1C(=O)Nc2ccc(O)cc2C12NC(=O)NC2=O (configuration not stated) | > 10 µM |
| CN1C(=O)Nc2ccccc2C12SC(N)=NC2=O (configuration not stated) | > 10 µM |
| CN1C(=O)Nc2cc(Cl)ccc2C12NC(=O)NC2=O (configuration not stated) | 0.094 µM |
| Cc1ccc2c(c1)NC(=O)N(C)C21NC(=O)NC1=O (configuration not stated) | 0.22 µM |
| CN1C(=O)Nc2ccc(Cl)cc2C12NC(=O)NC2=O (configuration not stated) | 0.056 µM |
| CCN1C(=O)Nc2ccccc2C12NC(=O)NC2=O (configuration not stated) | 1 µM |
| CN1C(=O)Nc2ccc(Cl)cc2[C@]12NC(=O)NC2=O | 0.77 µM |
| O=C1NC(=O)C2(N1)NC(=O)Nc1ccccc12 (configuration not stated) | 1.4 µM |
| CN1C(=O)NC2(C1=O)c1ccccc1NC(=O)N2C (configuration not stated) | > 10 µM |
| CN1C(=O)Nc2cccc(Cl)c2C12NC(=O)NC2=O (configuration not stated) | 0.86 µM |
| CN1C(=O)N(C)C2(C1=O)c1ccccc1NC(=O)N2C (configuration not stated) | > 10 µM |
| CN1C(=O)Nc2ccc(Br)cc2C12NC(=O)NC2=O (configuration not stated) | 0.052 µM |
| CN1C(=O)Nc2c([N+](=O)[O-])cc(Cl)cc2C12NC(=O)NC2=O (configuration not stated) | 0.046 µM |
| CN1C(=O)Nc2ccc(OC(=O)c3ccccc3)cc2C12NC(=O)NC2=O (configuration not stated) | 2 µM |
| CN1C(=O)Nc2cc3c(cc2C12NC(=O)NC2=O)OCO3 (configuration not stated) | 1.8 µM |
